Laboratory results taken from patent US20040102524A1, “Method of treatment” (priority 2001, published 2004).

System: uric acid levels
Assay: Clinical data for reduction of uric acid levels in human volunteers
Assay type: in vivo
Parameters: Mean uric acid 24 hr. after dose: unit not given here
Settings: for mean uric acid blood level reduced by: 24 hours after administration vs baseline; for % at 24 hrs. (mean blood level of uric acid at 24 hours after administration as a percentage of the baseline level) / Mean uric acid 24 hr. after dose: oral tablets; for Mean uric acid 24 hr. after dose: plasma
Description: Test subjects were orally administered tablets containing N-propanesulfonyl-6-[N-(5-bromo-2-(cyclopropylmethoxy)benzyl)-N-ethylamino]pyridazine-3-carboxamide, or a matching placebo was administered orally as tablets, with 200 mL of distilled water. The subjects were directed to remain semi-recumbent for six hours after dosing. A 4.9 mL sample of blood was taken into a tube containing lithium heparin anticoagulant, and plasma was separated by centrifugation for the clinical chemistry analysis at the pretrial medical examinations, pre-dose, 6 hours and 24 hours after dosing on each trial day. Concentrations of the uric acid were determined by standard analytical techniques.
The listed percentages represent mean blood level of uric acid at 24 hours after administration of the test substance (active compound or placebo) as a percentage of the baseline uric acid level measured prior to administration. […] In particular at a dose of 400 mg the mean uric acid blood level is reduced by 29%. Doses of 800 mg and 1600 mg likewise reduce blood levels of uric acid by 33% and 42% respectively.

Structure (SMILES): CCCS(=O)(=O)NC(=O)c1ccc(N(CC)Cc2cc(Br)ccc2OCC2CC2)nn1 [N-propanesulfonyl-6-[N-(5-bromo-2-(cyclopropylmethoxy)benzyl)-N-ethylamino]pyridazine-3-carboxamide]
- mean uric acid blood level reduced by (dose of 400 mg): 29%
- mean uric acid blood level reduced by (dose of 800 mg): 33%
- mean uric acid blood level reduced by (dose of 1600 mg): 42%
- % at 24 hrs. (mean blood level of uric acid at 24 hours after administration as a percentage of the baseline level) (dose 1 mg): 98.8%
- Mean uric acid 24 hr. after dose (dose 1 mg, n=4): 280
- % at 24 hrs. (mean blood level of uric acid at 24 hours after administration as a percentage of the baseline level) (dose 5 mg): 90.1%
- Mean uric acid 24 hr. after dose (dose 5 mg, n=4): 245
- % at 24 hrs. (mean blood level of uric acid at 24 hours after administration as a percentage of the baseline level) (dose 25 mg): 93.2%
- Mean uric acid 24 hr. after dose (dose 25 mg, n=4): 237
- % at 24 hrs. (mean blood level of uric acid at 24 hours after administration as a percentage of the baseline level) (dose 100 mg): 90.0%
- Mean uric acid 24 hr. after dose (dose 100 mg, n=4): 286
- % at 24 hrs. (mean blood level of uric acid at 24 hours after administration as a percentage of the baseline level) (dose 200 mg): 85.2%
- Mean uric acid 24 hr. after dose (dose 200 mg, n=4): 268
- % at 24 hrs. (mean blood level of uric acid at 24 hours after administration as a percentage of the baseline level) (dose 400 mg): 70.6%
- Mean uric acid 24 hr. after dose (dose 400 mg, n=4): 242
- % at 24 hrs. (mean blood level of uric acid at 24 hours after administration as a percentage of the baseline level) (dose 800 mg): 66.7%
- Mean uric acid 24 hr. after dose (dose 800 mg, n=4): 237
- % at 24 hrs. (mean blood level of uric acid at 24 hours after administration as a percentage of the baseline level) (dose 1600 mg): 57.6%
- Mean uric acid 24 hr. after dose (dose 1600 mg, n=6): 168
